The text below walks through data of PubChem BioAssay AID256 (DTP/NCI, 2004).

“And” between values parts separate entries of the source, which are not always exact repeats. Equal entries are not always repeated. Inconclusive results and toxic doses are left out.

The assay has as its system CD2F1 mice, L1210 leukemia ip, survival T/C. The assay can be described thus: NCI In Vivo Anticancer Drug Screen. Data for tumor model L1210 Leukemia (intraperitoneal) in CD2F1 (CDF1) mice. As to conditions: higher = longer survival. In outline:
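Implant tumor; dose compound or vehicle; measure endpoint in both groups; report treated divided by control.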

Setting [1] is: endpoint: mean survival time, dose: 100.0 mg/kg/injection, schedule: Q01DX001 (ip), vehicle: saline with Tween-80.
[2] abbreviates: endpoint: mean survival time, dose: 100.0 mg/kg/injection, schedule: Q04DX003 (ip), vehicle: saline with Tween-80.
Setting [3] is: endpoint: mean survival time, dose: 200.0 mg/kg/injection, schedule: Q01DX001 (ip), vehicle: saline with Tween-80.
[4] abbreviates: endpoint: mean survival time, dose: 200.0 mg/kg/injection, schedule: Q04DX003 (ip), vehicle: saline with Tween-80.
The mark [5] stands for this setting: endpoint: mean survival time, dose: 400.0 mg/kg/injection, schedule: Q04DX003 (ip), vehicle: saline with Tween-80.
Setting [6] is: endpoint: mean survival time, dose: 100.0 mg/kg/injection, schedule: Q01DX009 (ip), vehicle: saline with Tween-80.
The mark [7] stands for this setting: endpoint: mean survival time, dose: 200.0 mg/kg/injection, schedule: Q01DX009 (ip), vehicle: saline with Tween-80.
Where [8] appears, read: endpoint: mean survival time, dose: 400.0 mg/kg/injection, schedule: Q01DX009 (ip), vehicle: saline with Tween-80.
The mark [9] stands for this setting: endpoint: mean survival time, dose: 6.25 mg/kg/injection, schedule: Q01DX009 (ip), vehicle: saline with Tween-80.
[10] abbreviates: endpoint: mean survival time, dose: 12.5 mg/kg/injection, schedule: Q01DX009 (ip), vehicle: saline with Tween-80.
Where [11] appears, read: endpoint: mean survival time, dose: 100.0 mg/kg/injection, schedule: Q04DX002 (ip), vehicle: saline with Tween-80.

Take `Cc1c2c(cc3c1CCC1(C)C(C(C)CCC(C)C(C)C)CC(O)C31O)CCCC2` (centres undefined): the T/C was 92 % of control (endpoint: mean survival time, dose: 50.0 mg/kg/injection, schedule: Q01DX001 (ip), vehicle: saline with Tween-80); 94 % of control under setting [1]; 96 % of control under setting [2]; 92 % of control under setting [3]; 98 % of control under setting [4]; 98 % of control under setting [5].

With `NCC(Cc1ccc(O)cc1)P(=O)(O)O` (centres undefined), the T/C was 102 % of control under setting [6], 105 % of control under setting [7] and 93 % of control under setting [8].

Turning to `CC(C)c1ccccc(=O)c1O.CC(C)c1ccccc(=O)c1O.[Cu]`, the T/C is, setting by setting: under setting [9], 102 % of control; under setting [10], 100 % of control; (endpoint: mean survival time, dose: 25.0 mg/kg/injection, schedule: Q01DX009 (ip), vehicle: saline with Tween-80) 103 % of control.

As to `NC(N)=Nc1nc(N)nc(N)n1`, the T/C by setting is: (endpoint: mean survival time, dose: 3.13 mg/kg/injection, schedule: Q01DX009 (ip), vehicle: saline with Tween-80) 104 % of control; under setting [9], 107 % of control; under setting [10], 104 % of control and 110 % of control.

Consider `CC1(C)N=C(N)N=C(N)N1c1cccc(/C=C/c2ccc([N+](=O)[O-])cc2)c1`, for which the T/C by setting is: (endpoint: mean survival time, dose: 100.0 mg/kg/injection, schedule: Q04DX002 (ip), vehicle: Klucel (hydroxypropylcellulose) (HPC)) 103 % of control; (endpoint: mean survival time, dose: 200.0 mg/kg/injection, schedule: Q04DX002 (ip), vehicle: Klucel (hydroxypropylcellulose) (HPC)) 107 % of control; (endpoint: mean survival time, dose: 400.0 mg/kg/injection, schedule: Q04DX002 (ip), vehicle: Klucel (hydroxypropylcellulose) (HPC)) 95 % of control.

`COc1cccc2c1C(=O)c1c(O)c3c(c(O)c1C2=O)C[C@@](O)(C(=O)COC(=O)c1cccnc1)C[C@@H]3OC1CC(N)C(O)C(C)O1` (some centres undefined): the T/C is, setting by setting: (endpoint: mean survival time, dose: 0.25 mg/kg/injection, schedule: Q01DX009 (ip), vehicle: water) 104 % of control; (endpoint: mean survival time, dose: 0.4 mg/kg/injection, schedule: Q01DX009 (ip), vehicle: saline with Tween-80) 120 % of control; (endpoint: mean survival time, dose: 0.5 mg/kg/injection, schedule: Q01DX009 (ip), vehicle: water) 109 % of control; (endpoint: mean survival time, dose: 1.0 mg/kg/injection, schedule: Q01DX009 (ip), vehicle: water) 122 % of control; (endpoint: mean survival time, dose: 1.5 mg/kg/injection, schedule: Q01DX009 (ip), vehicle: saline) 168 % of control; (endpoint: mean survival time, dose: 2.0 mg/kg/injection, schedule: Q01DX009 (ip), vehicle: water) 120 % of control. For the same molecule, the T/C (endpoint: mean survival time, dose: 4.0 mg/kg/injection, schedule: Q01DX009 (ip), vehicle: water) is 108 % of control.

In the case of `Cc1ccc(S(=O)c2ccc(C)cc2)cc1`, the T/C (endpoint: mean survival time, dose: 100.0 mg/kg/injection, schedule: Q01DX001 (ip), vehicle: Klucel (hydroxypropylcellulose) (HPC)) was 101 % of control; the T/C under setting [1] is 100 % of control; the T/C (endpoint: mean survival time, dose: 200.0 mg/kg/injection, schedule: Q01DX001 (ip), vehicle: Klucel (hydroxypropylcellulose) (HPC)) was 89 % of control; the T/C under setting [3] was 103 % of control; the T/C (endpoint: mean survival time, dose: 400.0 mg/kg/injection, schedule: Q01DX001 (ip), vehicle: Klucel (hydroxypropylcellulose) (HPC)) was 93 % of control; the T/C (endpoint: mean survival time, dose: 400.0 mg/kg/injection, schedule: Q01DX001 (ip), vehicle: saline with Tween-80) is 100 % of control.

With `CNC(=S)N1CCSN1NC`, the T/C is, setting by setting: under setting [11], 91 % of control; (endpoint: mean survival time, dose: 200.0 mg/kg/injection, schedule: Q04DX002 (ip), vehicle: saline with Tween-80) 95 % of control; (endpoint: mean survival time, dose: 400.0 mg/kg/injection, schedule: Q04DX002 (ip), vehicle: saline with Tween-80) 86 % of control.

As to `COC(=O)c1ccc(NC(=O)Cc2c(O)c3c(c(C)c2OC)COC3=O)cc1N`, the T/C is 100 % of control (endpoint: mean survival time, dose: 100.0 mg/kg/injection, schedule: Q04DX002 (ip), vehicle: saline); 112 % of control (endpoint: mean survival time, dose: 200.0 mg/kg/injection, schedule: Q04DX002 (ip), vehicle: saline); 102 % of control (endpoint: median survival time, dose: 100.0 mg/kg/injection, schedule: Q04DX002 (ip), vehicle: saline); 106 % of control (endpoint: median survival time, dose: 200.0 mg/kg/injection, schedule: Q04DX002 (ip), vehicle: saline).

Consider `O=C(O)CCC1C2C=CC(C2)C1C(=O)O` (centres undefined), for which the T/C is 96 % of control under setting [2], 96 % of control under setting [4] and 98 % of control under setting [5].

Turning to `CCC[CH2][Sn](=[S])[CH2]CCC`, the T/C is 102 % of control (endpoint: mean survival time, dose: 0.39 mg/kg/injection, schedule: Q01DX009 (ip), vehicle: other); 100 % of control (endpoint: mean survival time, dose: 0.78 mg/kg/injection, schedule: Q01DX009 (ip), vehicle: other); 107 % of control (endpoint: mean survival time, dose: 1.56 mg/kg/injection, schedule: Q01DX009 (ip), vehicle: other); 103 % of control (endpoint: mean survival time, dose: 6.25 mg/kg/injection, schedule: Q04DX003 (ip), vehicle: other); 103 % of control (endpoint: mean survival time, dose: 12.5 mg/kg/injection, schedule: Q04DX003 (ip), vehicle: other).

Take `CCOC(=O)NC(C)(C)CN(C(=O)OCC)c1ccccc1`: the T/C was 98 % of control under setting [6], 124 % of control under setting [7] and 95 % of control under setting [8].

In the case of `COC(=O)C(Br)C1CCCCC1` (centres undefined), the T/C by setting is: (endpoint: mean survival time, dose: 50.0 mg/kg/injection, schedule: Q01DX009 (ip), vehicle: saline with Tween-80) 95 % of control; under setting [6], 102 % of control; under setting [2], 100 % of control; under setting [7], 93 % of control; under setting [4], 102 % of control.

In the case of `COC(=O)C(CS)NC(=O)CCNC(=O)OCc1ccccc1` (centres undefined), the T/C is 100 % of control (endpoint: mean survival time, dose: 12.5 mg/kg/injection, schedule: Q01DX009 (ip), vehicle: sodium bicarbonate); 96 % of control (endpoint: mean survival time, dose: 25.0 mg/kg/injection, schedule: Q01DX009 (ip), vehicle: sodium bicarbonate); 91 % of control (endpoint: mean survival time, dose: 50.0 mg/kg/injection, schedule: Q01DX009 (ip), vehicle: sodium bicarbonate); 93 % of control (endpoint: mean survival time, dose: 100.0 mg/kg/injection, schedule: Q01DX009 (ip), vehicle: sodium bicarbonate); 88 % of control (endpoint: mean survival time, dose: 200.0 mg/kg/injection, schedule: Q01DX009 (ip), vehicle: sodium bicarbonate).

`Cc1ccc(S(=O)(=O)C[n+]2ccc(C(=O)c3ccccc3)cc2)cc1`: the T/C is 90 % of control (endpoint: mean survival time, dose: 25.0 mg/kg/injection, schedule: Q04DX002 (ip), vehicle: saline with Tween-80); 97 % of control (endpoint: mean survival time, dose: 50.0 mg/kg/injection, schedule: Q04DX002 (ip), vehicle: saline with Tween-80); 97 % of control and 104 % of control under setting [11].

Turning to `Cc1ccc2ncccc2c1[N+](=O)[O-]`, the T/C is, setting by setting: under setting [2], 101 % of control; under setting [4], 95 % of control.

In the case of `O=NN1CCOC1=NCCCl`, the T/C reads like this: (endpoint: mean survival time, dose: 3.12 mg/kg/injection, schedule: Q01DX001 (ip), vehicle: water) 100 % of control; (endpoint: mean survival time, dose: 6.25 mg/kg/injection, schedule: Q01DX001 (ip), vehicle: water) 96 % of control; (endpoint: mean survival time, dose: 12.5 mg/kg/injection, schedule: Q01DX001 (ip), vehicle: water) 94 % of control; (endpoint: mean survival time, dose: 25.0 mg/kg/injection, schedule: Q01DX001 (ip), vehicle: water) 96 % of control; (endpoint: mean survival time, dose: 50.0 mg/kg/injection, schedule: Q01DX001 (ip), vehicle: water) 96 % of control; (endpoint: mean survival time, dose: 100.0 mg/kg/injection, schedule: Q01DX001 (ip), vehicle: water) 102 % of control. Further, under “endpoint: mean survival time, dose: 200.0 mg/kg/injection, schedule: Q01DX001 (ip), vehicle: water”, the T/C was 122 % of control.

For `[Cl][Pt+2][Cl].[NH-]c1ccc(C(=O)c2ccccc2)cc1[NH-]`, the T/C reads like this: (endpoint: mean survival time, dose: 2.5 mg/kg/injection, schedule: Q01DX009 (ip), vehicle: saline with Tween-80) 105 % of control; (endpoint: mean survival time, dose: 5.0 mg/kg/injection, schedule: Q01DX009 (ip), vehicle: saline with Tween-80) 105 % of control; (endpoint: mean survival time, dose: 10.0 mg/kg/injection, schedule: Q01DX009 (ip), vehicle: saline with Tween-80) 106 % of control; (endpoint: mean survival time, dose: 20.0 mg/kg/injection, schedule: Q01DX009 (ip), vehicle: saline with Tween-80) 100 % of control and 106 % of control; (endpoint: mean survival time, dose: 40.0 mg/kg/injection, schedule: Q01DX009 (ip), vehicle: saline with Tween-80) 102 % of control and 105 % of control; (endpoint: mean survival time, dose: 80.0 mg/kg/injection, schedule: Q01DX009 (ip), vehicle: saline with Tween-80) 101 % of control. Also, the T/C reads like this: (endpoint: mean survival time, dose: 160.0 mg/kg/injection, schedule: Q01DX009 (ip), vehicle: saline with Tween-80) 100 % of control; (endpoint: mean survival time, dose: 320.0 mg/kg/injection, schedule: Q01DX009 (ip), vehicle: saline with Tween-80) 100 % of control.
